Values joined by “and” are separate entries in the source; they are usually repeats but may differ in a detail not shown here. Identical values can stand only once. Non-standard residues stand in square brackets, D forms with d. Residues, ends and D or L forms follow the SMILES beside them. Lys(thiomyristoyl) = CCCCCCCCCCCCCC(=S)NCCCC[C@H](N)C(=O)O

Consider one compound from article PMC7070036, “An amber obligate active site-directed ligand evolution technique for phage display” (Nature Communications, 2020).

What all share (format): biochemical
One experiment has as its target T1, SIRT1 (Homo sapiens, UniProt Q96EB6).
T1 sequence (Q96EB6 1-747): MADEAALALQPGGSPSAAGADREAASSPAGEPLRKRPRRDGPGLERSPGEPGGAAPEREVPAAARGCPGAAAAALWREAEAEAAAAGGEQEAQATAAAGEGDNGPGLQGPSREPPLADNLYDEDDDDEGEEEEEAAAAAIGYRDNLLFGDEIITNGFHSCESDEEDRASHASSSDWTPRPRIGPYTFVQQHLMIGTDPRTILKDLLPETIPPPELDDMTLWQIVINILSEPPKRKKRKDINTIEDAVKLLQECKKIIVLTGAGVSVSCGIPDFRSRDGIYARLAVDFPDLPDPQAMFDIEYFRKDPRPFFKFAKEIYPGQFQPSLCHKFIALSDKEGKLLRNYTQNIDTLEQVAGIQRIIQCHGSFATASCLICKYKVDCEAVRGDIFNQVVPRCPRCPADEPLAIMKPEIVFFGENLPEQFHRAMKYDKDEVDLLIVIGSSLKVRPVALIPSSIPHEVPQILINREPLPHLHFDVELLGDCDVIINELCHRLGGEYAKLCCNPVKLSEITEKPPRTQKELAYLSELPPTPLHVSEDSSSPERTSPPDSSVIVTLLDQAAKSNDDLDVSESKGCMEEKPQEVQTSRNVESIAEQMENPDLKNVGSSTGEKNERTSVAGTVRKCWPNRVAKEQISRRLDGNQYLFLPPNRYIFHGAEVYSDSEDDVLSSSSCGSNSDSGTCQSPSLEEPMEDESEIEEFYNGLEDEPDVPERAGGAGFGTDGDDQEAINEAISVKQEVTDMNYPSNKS
The experiment is described as follows: Continuous fluorogenic sirtuin inhibition assay, SIRT1. The conditions noted are these: mean ± SD of two independent experiments. The protocol:
The continuous assay for comparing isoform specificity of S2P04 was performed using the universal fluorogenic sirtuin substrate described by Schuster et al.[41]. Briefly, the inhibition reactions were performed in 50-µL volumes at 37 °C in black, half-area, 96-well plates. The sirtuin enzyme (0.25 µM) was preincubated with different concentrations of the peptide S2P04 (0.0064–50 µM for SIRT1 and SIRT2, 0.5–100 µM for SIRT3) or TB (0.16–150 µM for SIRT1–SIRT3), and 1 mM NAD^+ in assay buffer (20 mM Tris, pH 7.8, 150 mM NaCl, 5 mM MgCl2, and 1 mM DTT) for 15 min. Following incubation, the reaction started with the addition of the fluorogenic substrate (5 µM), and product formation was monitored by measuring the fluorescence intensity every 20 s for 5 min (SIRT2) or 30 min (SIRT1 and SIRT3) in a BioTek Synergy H1 microplate reader at λex = 320 nm and λem = 408 nm (gain = 130 and read height = 7 mm). Initial rates of product formation were determined by a linear regression of the plot of fluorescence intensity vs. time and normalized relative to 0% (max inhibitor) and 100% (no inhibitor) controls. The assay was repeated to determine the IC50 values of all BuK peptides for SIRT2. IC50 values were determined by nonlinear regression of the plot of the normalized initial rate vs. inhibitor concentration using GraphPad Prism. The determined IC50 values are provided in Supplementary Table 2, and inhibition curves can be seen in Supplementary Fig. 20.

The target of experiment [1] is T2, SIRT2 (Homo sapiens, UniProt Q8IXJ6).
T2 sequence (Q8IXJ6 1-389): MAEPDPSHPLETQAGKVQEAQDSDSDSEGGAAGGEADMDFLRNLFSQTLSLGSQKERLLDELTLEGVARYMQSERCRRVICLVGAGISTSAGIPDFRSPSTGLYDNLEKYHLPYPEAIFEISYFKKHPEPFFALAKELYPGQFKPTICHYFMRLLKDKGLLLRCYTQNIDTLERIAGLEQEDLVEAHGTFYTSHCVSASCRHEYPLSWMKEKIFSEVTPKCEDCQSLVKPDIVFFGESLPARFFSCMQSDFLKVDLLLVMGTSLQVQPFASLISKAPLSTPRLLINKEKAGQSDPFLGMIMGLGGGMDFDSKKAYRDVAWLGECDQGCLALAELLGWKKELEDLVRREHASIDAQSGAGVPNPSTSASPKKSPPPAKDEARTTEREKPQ
Description: SIRT2 inhibition assay for thiomyristoyl peptides. The procedure:
Assays were performed in 40-µL volumes at 37 °C in black, 384-well plates. […] Following incubation, the reaction started with the addition of the fluorogenic substrate (5 µM), and product formation was monitored by measuring the fluorescence intensity every 20 s for 5 min (SIRT2) in a BioTek Synergy H1 microplate reader at λex = 320 nm and λem = 408 nm (gain = 130 and read height = 7 mm). Initial rates were determined using the plot of fluorescence vs. time for linear portions of each curve. IC50 values were then determined using GraphPad Prism to fit a nonlinear regression to the normalized rates vs. inhibitor concentration.

The target in experiment [2] is T2, SIRT2. The experiment is described as follows: SIRT2 inhibition assay, no preincubation. The protocol: The inhibition assay was performed using a universal continuous sirtuin substrate. Assays were performed in 40-µL volumes at 37 °C in black, 384-well plates. Five micrometers of substrate was incubated with different concentrations of peptide or TM (0.5–1000 nM in DMF, 20% DMF final concentration) for 2 min in assay buffer (20 mM Tris, pH 7.8, 150 mM NaCl, 5 mM MgCl2, 1 mM DTT, and 1 mM NAD^+). Following incubation, the reaction started with the addition of SIRT2 (10 nM), and product formation was monitored by measuring the fluorescence intensity every 20 s for 10 min (SIRT2) in a BioTek Synergy H1 microplate reader at λex = 320 nm and λem = 408 nm (gain = 130 and read height = 7 mm). Initial rates were determined using the plot of fluorescence vs. time for linear portions of each curve. The IC50 value was determined using GraphPad Prism to fit a nonlinear regression to the normalized rates vs. inhibitor concentration (Supplementary Fig. 30).

As a reminder, the IC50 is the concentration that gives 50% inhibition. On to `CCCCCCCCCCCCCC(=S)NCCCC[C@H](NC(=O)[C@@H](NC(=O)[C@@H](NC(=O)[C@@H](N)CS)[C@@H](C)O)C(C)C)C(=O)N[C@H](C(=O)N[C@@H](CO)C(=O)N[C@@H](CC(C)C)C(N)=O)[C@@H](C)O` [S2P03-tMyK] (H-CTV[Lys(thiomyristoyl)]TSL-NH2), for which the IC50 at SIRT1 worked out at 400 ± 100 nM; on SIRT2 [1] (10 nM SIRT2, 15 min preincubation, 5 µM substrate, n = 2), 10 ± 3 nM. On SIRT2 [1] (inhibitor 0.465917 nM), the activity at 0.000465917 µM worked out at 102%. Moreover, the “%Activity, SIRT2” value at SIRT2 [1] (inhibitor 0.465917 nM, 0.000465917 µM) was 98.0615%; on SIRT2 [1] (inhibitor 0.931834 nM, 0.000931834 µM), 113.937% and 81.1704%; on SIRT2 [1] (inhibitor 1.86367 nM, 0.00186367 µM), 95.1685%; at SIRT2 [1] (inhibitor 3.72734 nM, 0.00372734 µM), 82.1027%; at SIRT2 [1] (inhibitor 7.45468 nM, 0.00745468 µM) it was 52.8299% and 73.9018%; at SIRT2 [1] (inhibitor 14.9094 nM, 0.0149094 µM) it was 45.2416%. The “%Activity, SIRT2” value at SIRT2 [1] (inhibitor 477.099 nM, 0.477099 µM) was 3.151% and -3.151%; on SIRT2 [1] (inhibitor 954.198 nM, (Activity/Activity w/o inhibitor)*100, single trials, 0.954198 µM) it was 11.9872% and 2.232%. The activity at 0.00186367 µM on SIRT2 [1] (inhibitor 1.86367 nM) was found to be 99.7%. The activity at 0.00372734 µM at SIRT2 [1] (inhibitor 3.72734 nM) amounted to 96.6%. The activity at 0.0149094 µM at SIRT2 [1] (inhibitor 14.9094 nM) was 40.8%. Also, the “change in IC50 without preincubation of enzyme” value at SIRT2 [2] is given as “insignificant change in IC50”.
